Laboratory results from paper PMC10223877, “Impacts of PEGylation and Glycosylation on the Biological Properties of Host Defense Peptide IDR1018” (Pharmaceutics, 2023).
Values after ≈ are worked out from the molar mass of the structure shown. Ends that are not written are not given here. Peptide text beside a SMILES is read from it. * marks the point of attachment. X1 = CC(=O)N[C@H]1C(*)O[C@H](CO)[C@@H](O)[C@@H]1O; X2 = O=C(CCOCCOCCOCCOCCOCCOCCO)*

Assays:
[1] = system: P. aeruginosa PA14; test: Biofilm eradication assay (MBEC), preformed biofilms; format: cell-based; details: BM2 glucose, viable biofilm cell count, three independent experiments
Text: (§2) A bacterial suspension of 1 × 10^7 CFU mL^−1 was used to establish biofilms prior to treatment with the peptides. Appropriate nutrient media for optimal biofilm formation were used, including TSB supplemented with 1% glucose for MRSA SAP0017, BM2 glucose for P. aeruginosa PA14, and LB media supplemented with 1% glucose for E. coli ATTC489 and A. baumannii 5015. In the crystal violet-based assay, untreated bacterial culture and sterile media were used as positive and negative controls, where the % of biofilm biomass was considered 100 and 0%, respectively. The % of biomass in the treated samples was determined relative to the positive and negative controls. A biofilm eradication assay [17] was also performed, for which the residual viable biofilm cell count (CFU mL^−1) was determined. Experiments were conducted in triplicate, in three independent experiments, and average values were presented with ± standard deviations.

[2] = system: E. coli ATTC489; test: as above; format: cell-based; details: LB + 1% glucose, viable biofilm cell count, three independent experiments
Text: as §2

[3] = at 128 µg mL^−1; LDH release, 24 h, 37 °C, RPMI + 10% FBS; 1% Triton X-100 = 100%
Method: The cytotoxicity of the conjugates was assessed in vitro against PBMCs as described earlier using the lactate dehydrogenase (LDH)-based assay [35]. Blood samples were collected from healthy donors with ethics approval and PBMCs were isolated following our previously reported protocol [35]. The cells were resuspended in RPMI medium supplemented with 10% FBS and seeded in tissue culture-treated plates at a final density of 1 × 10^5 cells well^−1. Subsequently, the cells were treated with the conjugates or IDR1018 and incubated for 24 h at 37 °C in 5% CO2, to determine the LDH release. Triton X-100 (1% final concentration) was used as a toxic (positive) control.

[4] = system: A. baumannii 5015; test: Biofilm eradication assay (MBEC), preformed biofilms; format: cell-based; details: preformed A. baumannii 5015 biofilm, LB + 1% glucose; viable biofilm cell count; three independent experiments
Text: as §2

[5] = system: E. coli ATTC489; test: MIC, liquid broth inhibition assay; format: cell-based; details: planktonic E. coli ATTC489; MHB, ~1 × 10^6 CFU mL^−1, ~18 h, OD600; modal values of three independent experiments
Method: (§1) The MIC was conducted using the liquid broth inhibition assay as previously described. MHB was used as a medium for bacterial growth, and bacteria (either MRSA SAP0017, P. aeruginosa PA14, E. coli ATTC489 or A. baumannii 5015) were suspended at ∼1 × 10^6 CFU mL^−1. The peptide conjugates were incubated with the bacterial cultures at various concentrations for ~18 h prior determination of bacterial growth optical density at 600 nm (OD600). The MIC was defined as the lowest concentration that led to no growth in the wells. All values are modal values of three independent experiments.

[6] = system: P. aeruginosa PA14; test: MIC, liquid broth inhibition assay; format: cell-based; details: planktonic P. aeruginosa PA14; MHB, ~1 × 10^6 CFU mL^−1, ~18 h, OD600; modal values of three independent experiments
Method: as §1

[7] = system: A. baumannii 5015; test: MIC, liquid broth inhibition assay; format: cell-based; details: planktonic A. baumannii 5015; MHB, ~1 × 10^6 CFU mL^−1, ~18 h, OD600; modal values of three independent experiments
Method: as §1

[8] = system: S. aureus MRSA0017; test: MIC, liquid broth inhibition assay; format: cell-based; details: planktonic S. aureus MRSA0017; MHB, ~1 × 10^6 CFU mL^−1, ~18 h, OD600; modal values of three independent experiments
Method: as §1

[9] = system: IL-10; test: Immunomodulatory assay, ELISA of PBMC supernatant; format: cell-based, human; details: PBMCs, peptide 8 μg mL^−1 co-treated with 20 ng mL^−1 P. aeruginosa LPS, 24 h
Method: (§3) To evaluate the capacity of the conjugates to modulate the immune system, suspended PBMCs (a final density of 1 × 10^5 cells well^−1) were treated with the conjugates at 8 μg mL^−1 in the presence or absence of 20 ng mL^−1 P. aeruginosa LPS, incubated for 24 h, centrifuged, and then the supernatants were collected to quantifying the levels of monocyte chemoattractant protein 1 (MCP-1), the tumor necrosis factor-alpha (TNFα), and interleukins (IL) IL-1β, IL-10, and the anti-inflammatory IL-1 receptor antagonist (IL-1RA) using specific ELISA assays (ELISA kits, eBioscience, Carlsbad, CA, USA). All experiments were conducted in triplicate in three independent experiments and average values were presented.

[10] = system: MRSA SAP0017, P. aeruginosa PA14, E. coli ATTC489, A. baumannii 5015; test: MIC, summary over the strains tested; format: cell-based; details: range over the four strains of Table 2
Method: as §1

[11] = system: human PBMCs; test: Immunomodulatory assay, chemokine and cytokine expression overall; format: cell-based
Method: as §3

[12] = system: IL-1RA; test: Immunomodulatory assay, ELISA of PBMC supernatant; format: cell-based, human; details: PBMCs
Method: as §3

[13] = system: MCP-1; test: Immunomodulatory assay, ELISA of PBMC supernatant; format: cell-based, human; details: PBMCs, peptide 8 μg mL^−1 co-treated with 20 ng mL^−1 P. aeruginosa LPS, 24 h
Method: as §3

[14] = system: S. aureus MRSA0017; test: Biofilm biomass, crystal violet staining assay; format: cell-based; details: at 64 µg mL^−1, relative to untreated samples
Text: as §2

[15] = Aggregation assay (turbidity) in sodium citrate or phosphate; format: physicochemical; details: sodium citrate and sodium phosphate, 0.1−1000 mM; OD600 relative to sterile water
Method: Solutions of IDR1018 peptide and the conjugates were tested for aggregation in saline (0.9% NaCl), 5% dextrose, and 10% RPMI tissue culture medium at 1 mg mL^−1. The solutions were placed in 96 well plates and sterile water was used as a negative control. The turbidity was determined for each sample as described in earlier reports. Similarly, the conjugates were screened for aggregation in the presence of sodium salts of polyatomic anions (citrate or phosphate) at various strengths (0.1−1000 mM). The % of aggregates was assessed relative to the OD600 of sterile water.

[16] = system: S. aureus MRSA0017; test: Biofilm eradication assay (MBEC), preformed biofilms; format: cell-based; details: TSB + 1% glucose, viable biofilm cell count, three independent experiments
Text: as §2

[17] = Aggregation with PBMCs in tissue culture, microscopy; format: physicochemical, human; details: 32 μg mL^−1, PBMCs in RPMI, 4 h, 37 °C, 5% CO2, microscopy; triplicate in three independent experiments
Method: Furthermore, isolated peripheral blood mononuclear cells (PBMCs) seeded in 96-well flat-bottom tissue culture plates (Corning Inc., Corning, NY, USA) at a concentration of 2 × 10^6 in RMPI media were treated with the two conjugates at a final concentration of 32 μg mL^−1, incubated for 4 h at 37 °C in 5% CO2, and visualized on a Nikon Eclipse TS100 microscope. Experiments were performed in triplicate in three independent experiments.

[18] = system: IL-1β; test: Immunomodulatory assay, ELISA of PBMC supernatant; format: cell-based, human; details: PBMCs, peptide 8 μg mL^−1 co-treated with 20 ng mL^−1 P. aeruginosa LPS, 24 h
Method: as §3

Compound | MBEC (minimal biofilm eradication concentration) [1] [µg/mL] | MBEC (minimal biofilm eradication concentration) [2] [µg/mL] | cytotoxicity to PBMCs [3] | MBEC (minimal biofilm eradication concentration) [4] [µg/mL] | MIC [5] [µg/mL] | MIC [6] [µg/mL] | MIC [7] [µg/mL] | MIC [8] [µg/mL] | IL-10 induction level with LPS stimulation [9] | MICs, range based on the strains tested [10] [µg/mL] | boost of the level of MCP1 and IL-1RA relative to unmodified IDR1018 ([11]; peptide 8 μg mL^−1, absence of LPS) | ability to modulate chemokine and cytokine expression ([11]; peptide 8 μg mL^−1, absence of an LPS stimulant) | level of IL-1RA induced ([12]; peptide 8 μg mL^−1, 24 h, absence of LPS, mean of three independent experiments) [ng/mL] | IL-1RA induction level with LPS stimulation ([12]; peptide 8 μg mL^−1 co-treated with 20 ng mL^−1 P. aeruginosa LPS, 24 h) | MCP1 induction level with LPS stimulation [13] | biomass reduction [14] [%] | turbidity in sodium salts of polyatomic anions [15] | MBEC (minimal biofilm eradication concentration) [16] [µg/mL] | aggregation when incubated with PBMCs in tissue culture [17] | expression of IL-1β with LPS stimulation [18]
VRLIVAVRIWRR-NH2 [IDR1018] | 16 | 16 | up to 20% | 16 | 16 | 16 | 16 | 16 | – | – | – | – | – | – | – | – | – | – | – | –
CC[C@H](C)[C@H](NC(=O)[C@H](CCCNC(=N)N)NC(=O)[C@@H](NC(=O)[C@H](C)NC(=O)[C@@H](NC(=O)[C@@H](NC(=O)[C@H](CC(C)C)NC(=O)[C@H](CCCNC(=N)N)NC(=O)[C@@H](NC(=O)[C@@H](N)[C@@H](C)OC1O[C@H](CO)[C@@H](O)[C@H](O)[C@H]1NC(C)=O)C(C)C)[C@@H](C)CC)C(C)C)C(C)C)C(=O)N[C@@H](Cc1c[nH]c2ccccc12)C(=O)N[C@@H](CCCNC(=N)N)C(=O)N[C@@H](CCCNC(=N)N)C(N)=O (stereo partly drawn) [Glc-IDR1018] (H-T(X1)VRLIVAVRIWRR-NH2) | 256 | 128 | – | 256 | 64 (≈ 34.8 µM) | 128 (≈ 69.6 µM) | 64 (≈ 34.8 µM) | 64 (≈ 34.8 µM) | substantially higher expression values | 64 to 128 | 2–5 fold | significant increase in the expression of the immune mediators relative to unmodified IDR1018 | 0.8 | substantially higher expression values | substantially higher expression values | ≥ 90 | no turbidity increase | 64 | neither peptide conjugate, PEG6-IDR1018, and Glc-IDR1018 showed any obvious sign of aggregation | significantly suppressed
CC[C@H](C)[C@H](NC(=O)[C@H](CCCNC(=N)N)NC(=O)[C@@H](NC(=O)[C@H](C)NC(=O)[C@@H](NC(=O)[C@@H](NC(=O)[C@H](CC(C)C)NC(=O)[C@H](CCCNC(=N)N)NC(=O)[C@@H](NC(=O)CCOCCOCCOCCOCCOCCOCCO)C(C)C)[C@@H](C)CC)C(C)C)C(C)C)C(=O)N[C@@H](Cc1c[nH]c2ccccc12)C(=O)N[C@@H](CCCNC(=N)N)C(=O)N[C@@H](CCCNC(=N)N)C(N)=O [PEG6-IDR1018] (X2-VRLIVAVRIWRR-NH2) | 256 | 128 | – | 128 | 64 (≈ 34.2 µM) | 64 (≈ 34.2 µM) | 64 (≈ 34.2 µM) | 32 (≈ 17.1 µM) | – | 32 to 64 | – | – | – | – | – | – | – | 64 | – | –
